Results: patent US20250228857A1, “BIOSENSOR AND USES THEREOF” (The Johns Hopkins University, priority 2022, published 2025)
Read-outs that look alike come from different tables or passages of the source. One block for each molecule: values may come before it.

Key:
[1] = system: CaMKII; conditions: cited from earlier work
[2] = target: T1, CaMKII (Rattus norvegicus, UniProt P15791); experiment: Pacing-induced CaMKII activity in CaMKAR-expressing neonatal rat ventricular myocytes (NRVMs); assay type: cell-based
T1 construct: endogenous in cells; host or cells: neonatal rat ventricular myocytes (Sprague-Dawley)

[3] = in vivo; cited from earlier work
[4] = in vivo; cited from earlier work; remark: listed apart in the source
[5] = cited from earlier work
[6] = system: 293T cells; experiment: Cell viability in 293T cells (CellTiter-Glo 2.0); conditions: 12-hour exposure
[7] = target: T2, CaMKII^T287D (Homo sapiens, UniProt Q13557, T287D); experiment: CaMKII inhibition in 293T cells expressing CaMKAR and CaMKII^T287D (high content imaging); assay type: cell-based; conditions: HEK293T cells, IC50 curves
T2 construct: expressed in transfected cells; host or cells: HEK293T

[8] = system: CaMKII; conditions: HEK293T cells and in vitro by independent commercial laboratory
[9] = system: NRVMs; experiment: NRVM cell viability after 48 hour compound incubation; assay type: cell-based, rat; conditions: 48-hour exposure
From the text: FIGS. 3A-3H show which drugs in clinical use inhibit CaMKII in cardiac cells. (FIG. 3A) Fluorescence imaging timelapse of CaMKAR expressing neonatal rat ventricular cardiomyocytes (NRVMs) and (FIG. 3B) summary data during 3 Hz field pacing (n=1,065-1,160 cells). R/R0=R normalized to mean R prior to stimulation. Scale bar=50 μm. […] CaMKII inhibition % defined by min-max normalization between untreated and maximally stimulated CaMKAR signal. […] (FIG. 3E) Summary data from D at 60 seconds post stimulation. […] (FIG. 3H) Cell viability after 48 hour compound incubation. All measurements are taken from >3 biological replicates. ns=p>0.05, ****p<0.0001; significance determined via one-way ANOVA and Dunnett's multiple comparisons test (FIGS. 3C,3 E); two-way ANOVA and Tukey's multiple comparisons test (FIG. 3F).
Rat hippocampal neurons were cultured as previously described (38).

[10] = system: type 1 diabetic mice; experiment: Atrial fibrillation induction by atrial burst pacing in type 1 diabetic mice; assay type: in vivo, mouse; conditions: 75 mg/kg i.p. single dose 10 minutes prior
From the text: (§1) (FIG. 7A) Representative type 1 diabetic mouse tracings immediately after atrial burst pacing. […] (FIG. 7B) Atrial fibrillation (AF) inducibility percentage from mice in FIG. 7A. Number of mice analyzed per group shown in each column: 9/16 vehicle treated mice had AF vs. 2/15 Rux-treated mice. (FIG. 7C) Sequential atrial fibrillation (AF) inducibility in OGT-transgenic mice. […] Number of mice analyzed per group shown in each column (Vehicle=5/5 had AF, Rux=1/5 had AF). […] Statistical comparisons were performed using 2-tailed Fischer's exact test (FIGS. 7B, 7C); two-way ANOVA with Sidak's multiple comparison's test (FIG. 7D); paired Student's T-test (FIG. 7E); *p<0.05, ****p<0.0001.
Diabetic Mouse Model. Type-1 diabetes (T1D) was induced as previously described (57) in adult male C57BL/6J mice (The Jackson Laboratory, ME, USA) by a single intraperitoneal injection of streptozotocin (STZ)(185 mg/kg, Sigma-Aldrich) dissolved in a citrate buffer (citric acid and sodium citrate, pH 4.0) after a six hour fast. Mice were maintained on normal chow diet (NCD) (7913 irradiated NIH-31 modified 6% mouse/rat diet—15 kg, Envigo, Indianapolis, TN). Mice were considered diabetic if blood glucose level was ≥300 mg/dl via tail vein blood checked with a glucometer—OneTouch Ultra 2 (LifeScan, Zug, Switzerland). […]

[11] = system: OGT-transgenic mice; experiment: Sequential atrial fibrillation inducibility in OGT-transgenic mice; assay type: in vivo, mouse; conditions: 75 mg/kg prior to second pacing
From the text: as §1
75 mg/kg dosing was chosen due to previous studies determining this dose to be equivalent to the 20-25 mg dose in humans based on plasma concentration (47-49). In vivo electrophysiology (EP) studies were performed as previously reported (57) in mice anesthetized with isoflurane (2% for induction and 1.5% for maintenance of anesthesia; Isotec 100 Series Isoflurane Vaporizer; Harvard Apparatus). AF was defined as the occurrence of rapid and fragmented atrial electrograms with irregular AV-nodal conduction and ventricular rhythm for at least 1 second. If 1 or more atrial bursts (out of 5) were an AF episode, the mouse was considered to have inducible AF. […]

[12] = system: CREM-IbAC-X mice; experiment: Spontaneous atrial fibrillation in CREM-IbAC-X mice; assay type: in vivo, mouse; conditions: 75 mg/kg i.p., 10 minutes after treatment
From the text: as §1
Spontaneous AF. 8-months-old CREM-IbAC-X mice were monitored via surface ECG for 15 minutes to establish the baseline for time spent in atrial fibrillation (AF). AF was defined as loss of p-waves and irregularly irregular R-R intervals for >10 seconds. Each mouse was monitored at least twice with more than 24 hours interval between two recordings. After establishing the baseline, the mice were injected with placebo (10% DMSO, 2.5% Tween-20 in saline; i.p. injections) and the 15-minute ECGs were recorded between 10-25 minutes post injection.

[13] = system: C57BL/6J mice; experiment: Novel object recognition test (NORT); assay type: in vivo, mouse; conditions: 75 or 41 mg/kg; single dose 1 hour prior or twice daily for 7 days
[14] = system: C57BL/6J mice; experiment: Y maze spatial recognition memory test; assay type: in vivo, mouse
[15] = system: C57BL/6J mice; experiment: Barnes maze; assay type: in vivo, mouse; conditions: 150 mg/kg/day
Procedure: (FIG. 20B) Latency to escape the Barnes maze during the probe trial (day 6). There was no significant deficit in ruxolitinib (Rux) treated mice over vehicle (Veh). Datapoints represent individual mice. (FIGS. 20C-20E) Latency to escape maze, primary errors, and total errors of mice subjected to Barnes maze during the 4 training trials. Statistical testing shown below each graph with proportion and significance of variance by each parameter. Data shown as mean±SEM. Significance was determined via Student's T-test (FIG. 20B), or two-way ANOVA (FIGS. 20C-20E).
For the Barnes maze: A brightly lit (1100 lux) Barnes maze with 20 evenly spaced holes and an escape box placed under one of the holes was used (Maze Engineers). During training, each mouse was placed in the center of the maze and allowed to explore the maze for 3 minutes per trial. During the trial, the number of head dips and the latency to find and then enter the escape box were recorded. Mice were given two trials per day for four days. 24 hours following training, mice were given a probe trial, with the number of head dips and latency to find and then enter the escape box recorded.

[16] = rats; cited from earlier work
[17] = system: WT and RyR2^R176Q/WT mice; experiment: ECG heart rate and electrophysiologic parameters in WT and RyR2^R176Q/WT mice
[18] = target: T3, constitutively active CaMKIIδT287D (Homo sapiens, UniProt Q13557, T287D); experiment: CaMKAR-based high throughput primary screen in K562^CaMKII-CaMKAR cells; assay type: cell-based; conditions: 5 μM per compound, 12 hours
T3 construct: P2A-mCherry (C); expressed in transfected cells; host or cells: K562 (lentiviral, doxycycline-induced)

[19] = target: CaMKII (Homo sapiens, UniProt Q13557); assay type: biochemical; conditions: 5 μM drug, 100 μM ATP
[20] = target: CaMKAR (CaMKII Activity Reporter) (human); experiment: cell-based or functional assay
[21] = system: Purified recombinant CaMKAR
[22] = long-term ruxolitinib, median exposures 11.1 and 34.4 months

Molecule: O=c1c(O)c(-c2ccc(O)c(O)c2)oc2ccccc12 [DiOHF, 3′,4′-dihydroxyflavonol]
IC50 ([1]; read-out: published IC50): 250 nM

inhibition of pacing-induced CaMKII activity ([2]; 0.5 μM and 2 μM pre-treatment): failed to inhibit
Molecule: O=C(Nc1nc2cccc(-c3ccc(CN4CCS(=O)(=O)CC4)cc3)n2n1)C1CC1 [Filgotinib, filgotinib]

Molecule: CN([C@@H](Cc1ccc(OS(=O)(=O)c2cccc3cnccc23)cc1)C(=O)N1CCN(c2ccccc2)CC1)S(=O)(=O)c1cccc2cnccc12 [KN-62, 1-[N,O-bis(5-isoquinolinesulfonyl)-N-methyl-L-tyrosyl]-4-phenylpiperazine]
inhibition of autonomously hyperactive CaMKII [1]: fail to inhibit

Molecule: COc1ccc(S(=O)(=O)N(CCO)c2ccccc2CN(C)CC=Cc2ccc(Cl)cc2)cc1 [KN-93]
inhibition of autonomously hyperactive CaMKII [1]: fail to inhibit

Molecule: CCN1CCN(Cc2ccc(Nc3ncc(F)c(-c4cc(F)c5nc(C)n(C(C)C)c5c4)n3)nc2)CC1 [abemaciclib]
CNS penetrance [3]: 11-16.6%
maximum human plasma concentration [4]: 243 nM
Maximum dose used in humans ([5]; human, in vivo): 200 mg BID

Molecule: CCS(=O)(=O)N1CC(CC#N)(n2cc(-c3ncnc4[nH]ccc34)cn2)C1 [baricitinib]
CNS penetrance [3]: 20% (103)
maximum human plasma concentration [4]: 58 nM
Maximum dose used in humans ([5]; FDA-approved): 4 mg QD (97)
Maximum dose used in humans ([5]; Healthy volunteers): 40 mg (98)
toxicity compared with AS100397 [6]: less toxic

potency compared with AS100397 [7]: more potent than AS100397
inhibition of pacing-induced CaMKII activity at maximal human plasma concentration ([2]; 3 Hz pacing, ruxolitinib 1.51 μM, crenolanib 478 nM, abemaciclib 243 nM, baricitinib 58 nM, silmitasertib 3.42 μM): sustained inhibition
Molecule: CC1(COc2ccc3c(c2)ncn3-c2ccc3cccc(N4CCC(N)CC4)c3n2)COC1 [crenolanib]
confirmed CaMKII inhibitor after re-test [8]: potent CaMKII inhibitors
maximum human plasma concentration [4]: 478 nM
Maximum dose used in humans ([5]; human, in vivo): 100 mg TID
toxicity compared with AS100397 [6]: all drugs except crenolanib were less toxic

Molecule: N#CC[C@H](C1CCCC1)n1cc(-c2ncnc3[nH]ccc23)cn1 [ruxolitinib]
well tolerated concentration [9]: up to 100 μM
mice with AF / mice analyzed [10]: 2/15
mice with AF / mice analyzed [11]: 1/5
percent time in AF [12]: 33.63%
novel object recognition, percent time spent with the novel object [13]: Neither single dose (1 hour prior) nor multiple doses (twice daily for 7 days) of ruxolitinib (75 or 41 mg/kg) caused significant differences in novel object recognition
decreased preference for the novel arm ([14]; higher dose single dosing and both multiple dosing cohorts): not seen
preference for the novel arm ([14]; single dosing, lower dose (41 mg/kg)): decreased preference for the novel arm
latency, primary errors, and total errors during training trials [15]: no significant effect
maze solving latency at study endpoint (probe trial) ([15]; day 6): no difference
plasma concentration over brain concentration [16]: 29 fold
CNS penetrance [3]: 3.5% (64)
maximum human plasma concentration [4]: 1510 nM
Maximum dose used in humans ([5]; FDA-approved): 25 mg BID (96)
Maximum dose used in humans ([5]; Healthy volunteers): 200 mg QD (76)
well-tolerated dose ([5]; healthy volunteers, short-term dosing): up to 200 mg
patients discontinuing treatment due to anemia [5, 22]: < 2.6%
patients discontinuing treatment due to thrombocytopenia [5, 22]: < 3.6%
cognitive deficits in patients ([5]; prescribed for over a decade): without reported overt cognitive deficits
toxicity compared with AS100397 [6]: less toxic
PR ([17]; RyR^R176Q/WT mice, Baseline): 39.5 ± 1 ms
QTc ([17]; RyR^R176Q/WT mice, Baseline): 36.5 ± 5 ms
PR ([17]; RyR^R176Q/WT mice, EPI): 42.2 ± 4 ms
QTc ([17]; RyR^R176Q/WT mice, EPI): 49.5 ± 4 ms
PR ([17]; RyR^R176Q/WT mice, ISO): 43.1 ± 3 ms
QTc ([17]; RyR^R176Q/WT mice, ISO): 51.6 ± 5 ms
PR ([17]; WT mice, Baseline): 43.4 ± 4 ms
QTc ([17]; WT mice, Baseline): 48.6 ± 6 ms
PR ([17]; WT mice, EPI): 45.9 ± 2.7 ms
QTc ([17]; WT mice, EPI): 55.7 ± 8 ms
PR ([17]; WT mice, ISO): 43.8 ± 4 ms
QTc ([17]; WT mice, ISO): 49.2 ± 4 ms

Molecule: O=C(O)c1ccc2c(c1)nc(Nc1cccc(Cl)c1)c1ccncc12 [silmitasertib]
maximum human plasma concentration [4]: 3420 nM
Maximum dose used in humans ([5]; human, in vivo): 1000 mg BID

Molecule: CN[C@@H]1C[C@H]2O[C@@](C)([C@@H]1OC)n1c3ccccc3c3c4c(c5c6ccccc6n2c5c31)C(=O)NC4 [staurosporine]
CaMKAR signal / hit in primary screen [18]: returned
inhibition in secondary screen (CaMKAR in vitro assay) [19]: returned

Maximal amplitude change of CaMKAR signal (R/R0), HEK293T cells, ionomycin [20]: 227%
Molecule: Constitutively active CaMKIIδC (T287D mutation) (from UniProt Q13557 1-499)

Molecule: Purified CaMKIIδc
dynamic range of CaMKAR ratio in vitro, plate reader, Ca2+/CaM and ATP [21]: CaMKAR displays a larger dynamic range in vitro (264±2.1%)
spectral changes of purified CaMKAR in vitro [21]: Recombinant CaMKAR is fully functional and exhibits appropriate spectral changes upon incubation with purified CaMKII
